Results from patent US8193235B2, “Compositions and methods for establishing and maintaining stem cells in an undifferentiated state” (University of Kansas, priority 2009, dated 2012).

Key:
[1] = test system: NF-κB; assay: NF-κB5X-Luc reporter activation; format: cell-based, mouse; settings: E14 cells
Description: Analysis of NF-κB5X-Luc Reporter Activation. E14 ES or PKCζkd cells (2-4×10^4) were seeded on 24-well plates […]. Cells were transfected with 1 μg of plasmid ([…] NF-kB cis-Reporting System, Stratagene) in OPTI-MEM. Transfection mixture was removed after 5 hours with appropriate media. Luciferase activity was measured 24 hours post-transfection and expressed relative to total protein present in the whole cell lysate.

[2] = target: T1, PKC ζ (Mus musculus, UniProt Q02956); assay: Western blot analysis of p-PKC ζ in ES cells; format: cell-based
T1 construct: endogenous in cells; host or cells: mouse ES cells (E14)
T1 sequence (Q02956 whole entry): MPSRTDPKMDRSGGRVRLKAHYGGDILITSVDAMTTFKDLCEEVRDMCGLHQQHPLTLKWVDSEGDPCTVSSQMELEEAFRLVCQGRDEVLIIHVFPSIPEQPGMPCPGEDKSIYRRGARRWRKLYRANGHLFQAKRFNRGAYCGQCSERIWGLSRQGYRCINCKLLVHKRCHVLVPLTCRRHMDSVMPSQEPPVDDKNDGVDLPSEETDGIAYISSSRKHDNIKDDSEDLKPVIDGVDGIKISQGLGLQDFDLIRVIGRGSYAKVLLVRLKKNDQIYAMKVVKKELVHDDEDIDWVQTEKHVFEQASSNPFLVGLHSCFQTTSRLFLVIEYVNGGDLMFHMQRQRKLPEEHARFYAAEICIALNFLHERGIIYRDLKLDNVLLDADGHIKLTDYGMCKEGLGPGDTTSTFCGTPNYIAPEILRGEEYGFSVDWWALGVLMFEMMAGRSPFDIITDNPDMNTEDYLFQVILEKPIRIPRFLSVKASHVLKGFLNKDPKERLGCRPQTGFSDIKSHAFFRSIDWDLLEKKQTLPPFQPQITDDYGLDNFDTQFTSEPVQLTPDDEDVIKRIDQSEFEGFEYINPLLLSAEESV
Description: (§1) Western Blot Analysis. Whole cell lysates were prepared in SDS-gel loading buffer and resolved by 10% PAGE. The antibodies used for this study included β-actin Clone AC-15 from Sigma; p-STAT3 (Tyr705), p-p44/42 MAPK (tyr202/tyr204), p44/42 MAPK, GSK3β, Phospho Akt (Ser473), Akt, p-NFκβ p65 (Ser536), c-Myc, p-c-Myc (Thr58/Ser62), p-p90RSK (Thr359/Ser363), RSK1, Suz12 (D39F6), and Ezh2 (AC22) from Cell Signaling Technology; STAT3 (C-20), Oct-4 (C-10), Nanog (M-149), PKC α (C-20), PKC βI (C-16), PKC βII (C-18), PKC γ (C-19), PKC δ (C-20), PKC ζ (c-20), p-PKC ζ (Thr 410)-R, p-NFκβ p65 (ser311), and RelA (p65) from Santa Cruz Biotechnology; p-LGL1/LGL2 (S650/S654), SSEA4and H3K4Me3 from Abcam; LGL2 (M06), clone 4G2 from Abnova; β-Catenin from BD Transduction Laboratories, and H3K27Me3 and H3K9Me3 from Millipore.

[3] = test system: RelA and LGL1/2; assay: Phosphorylation of PKC ζ target proteins in mESCs; format: cell-based, mouse
Description: as §1

[4] = test system: DCIS.com cells; assay: Mamosphere formation of breast cancer cells; format: cell-based
Description: In addition to ES and iPS cells, it was determined whether blockade of PKC signaling facilitated the propagation of cancer stem cells. To that end, mamosphere formation of a breast cancer cell type known as DCIS.com was analyzed. Mamospheres are specialized structures formed by breast cancer cell types and are indicative of presence and propagation of breast cancer stem cells. […] Therefore, blockade of PKC signaling can be used to efficiently propagate and expand cancer stem cells.

[5] = test system: NF-κB target genes; assay: RT-PCR analysis of NF-κB target gene expression; format: cell-based, mouse
Description: Quantitative RT-PCR Analysis. RNA was extracted from different cell samples with TRIZOL reagent (Invitrogen). cDNA was prepared by annealing RNA (1 μg) with 250 ng of a 5:1 mixture of random and oligo(dT) primers heated at 68° C. for 10 minutes. This was followed by incubation with Moloney murine leukemia virus reverse transcriptase (50 units) (Invitrogen, Carlsbad, Calif.) combined with 10 mM DTT, RNasin (PROMEGA, Madison, Wis.), and 0.5 mM dNTPs at 42° C. for 1 hour. Reactions were diluted to a final volume of 100 μl and heat inactivated at 97° C. for 5 minutes. Twenty μl PCR reactions contained 2 μl cDNA, 10 μl SYBR Green Master Mix (Applied Biosystems, Foster City, Calif.) and corresponding primer sets. Relative expression levels were determined from a standard curve of serial dilutions of proliferating ES cell cDNA samples and were normalized to the expression of glyceraldehyde-3-phosphate dehydrogenase (GAPDH). At least three independent experiments were done for each set of data.

[6] = test system: Ezh2−/− ES cells; assay: Ezh2−/− ES cells on collagen-IV without LIF; format: cell-based, mouse; settings: absence of LIF
Description: Ezh2^−/− ES Cells. Ezh2^−/− cells, passage 6, were maintained on irradiated MEF feeders in standard ES medium (DMEM; Dulbecco's modified Eagle's medium) supplemented with 15% heat-inactivated fetal calf serum, 0.1 mM 2-mercaptoethanol, 2 mM L-glutamine, 0.1 mM non-essential amino acid, 1% of nucleoside mix (100× stock, Sigma), 1000 U/mi LIF and 50 U/ml Penicillin/Streptomycin. For experiments involving Gö6983, Ezh2^−/− cells were passed once without feeders and used for subsequent analysis. For experiments on collagen IV, ˜3×10^4 Ezh2^−/− cells were plated in each well of a six-well tissue culture plate in the presence or absence of LIF and Gö6983.

[7] = test system: 129/Sv blastocysts; assay: De novo derivation of new ES cells from blastocysts; format: cell-based, mouse
Description: De Novo Derivation of New ES Cells With Gö6983. Blastocysts from 6-week-old female 12952/SvPasCrl (129/Sv) strain mice (Charles River Laboratory, Wilmington, Mass.) were isolated at 3.5 day post-coitum. Isolated blasotocysts were plated on gelatin-coated plastic in medium containing Gö6983 and FBS and without LIF. To obtain ES cell colonies, blastocyst outgrowths were disaggregated with trypsin and replated on gelatin-coated wells with Gö6983 and FBS. ES cell colonies were expanded by replating with Gö6983 at clonal or higher density. For in vitro analysis, cells were differentiated following the same protocol described herein. After six passages with Gö6983-condition, chromosome numbers were checked by karyotyping, and injected in C57BL/6 blastocysts for chimera generation.

In the case of COc1ccc2c(c1)c(C1=C(c3c[nH]c4ccccc34)C(=O)NC1=O)cn2CCCN(C)C [Gö6983, 3-[1-[3-(dimethylamino)propyl]5-methoxy-1H-indol-3-yl]-4-(1H-indol-3-yl)-1H-pyrrole-2,5-dione], the “NFκ5x-Luc reporter gene activation” value [1] is reported as “strongly inhibited”, the “PKC ζ phosphorylation in ES cells” value [2] is reported as “almost completely inhibited” and the “phosphorylation of RelA and LGL1/2” value [3] is reported as “impaired”. For the same molecule, the mamosphere formation [4] was “efficiently generated mamospheres”, the “activation of NF-κB target gene transcription” value ([5]; E14 cells, absence of LIF, FIG. 3A) was “inhibited their activation” and the “activation of NF-κB target genes, RelA phosphorylation and reporter Luciferase” value ([5]; PKCζkd cells cultured on collagen IV) was “inhibited the activation”. For the same molecule, the “collagen-IV-induced Ezh2−/− cell differentiation” value [6] was “completely inhibited”, the “marker expression in Ezh2−/− cells on collagen-IV” value [6] was “maintained expression of pluripotency markers without the induction of developmental regulator genes” and the “propagation of Gö6983-derived ES cell lines at clonal density” value ([7]; cultured with Gö6983) was “successfully propagated in an undifferentiated state”. The “multilineage differentiation potential of established ES cell lines” value ([7]; embryoid bodies, differentiated on collagen IV) was “readily formed embryoid bodies and expressed lineage specific markers” and the “derivation of ES cell colonies from blastocyst outgrowths” value ([7]; serum and Gö6983, without LIF and feeder cells, gelatin-coated plates) was “multiple ES cell colonies were obtained from 10 blastocysts”.
